# Test results: the kinase profiling compilation of Christmann-Franck et al. (2016)
# Where “and” joins values, the source holds several entries; their conditions need not be identical. Equal values may be shown once.
# Legend:
# Test in all cases: radiometric filter-binding kinase assay, Kinase HotSpot
# Settings in all cases: compound 0.5 µM; ATP 10 µM
# [1] = biological target: RPS6KA5 KD2 (human) (UniProt O75582)
# [2] = biological target: NEK1 (human) (UniProt Q96PY6)
# [3] = biological target: FYN (human) (UniProt P06241)
# [4] = biological target: BRSK2 (human) (UniProt Q8IWQ3)
# [5] = biological target: MAPKAPK5 (human) (UniProt Q8IW41)
# [6] = biological target: MAP3K11 (human) (UniProt Q16584)
# [7] = biological target: RPS6KB1 (human) (UniProt P23443)
# [8] = biological target: MAPK14 (human) (UniProt Q16539)
# [9] = biological target: AKT1 (human) (UniProt P31749)
# [10] = biological target: LYN (human) (UniProt P07948)
# [11] = biological target: CDK3 CCNE1 (human) (UniProt Q00526+P24864)
# [12] = biological target: WNK3 (human) (UniProt Q9BYP7)
# [13] = biological target: PRKD3 (human) (UniProt O94806)
# [14] = biological target: IRAK1 (human) (UniProt P51617)
# [15] = biological target: DYRK1A (human) (UniProt Q13627)
# [16] = biological target: MAP4K4 (human) (UniProt O95819)
# [17] = biological target: PRKG2 (human) (UniProt Q13237)
# [18] = biological target: PDPK1 (human) (UniProt O15530)
# [19] = biological target: EPHA1 (human) (UniProt P21709)
# [20] = biological target: EPHB2 (human) (UniProt P29323)
# [21] = biological target: STK3 (human) (UniProt Q13188)
# [22] = biological target: PIM1 (human) (UniProt P11309)
# [23] = biological target: PASK (human) (UniProt Q96RG2)
# [24] = biological target: DDR2 (human) (UniProt Q16832)
# [25] = biological target: GSK3B (human) (UniProt P49841)
# [26] = biological target: MAP2K2 (human) (UniProt P36507)
# [27] = biological target: ACVRL1 (human) (UniProt P37023)
# [28] = biological target: MARK4 (human) (UniProt Q96L34)
# [29] = biological target: CDK6 CCND3 (human) (UniProt P30281+Q00534)
# [30] = biological target: ALK (human) (UniProt Q9UM73)
# [31] = biological target: FGFR4 (human) (UniProt P22455)
# [32] = biological target: BRSK1 (human) (UniProt Q8TDC3)
# [33] = biological target: PKN1 (human) (UniProt Q16512)
# [34] = biological target: MAP3K10 (human) (UniProt Q02779)
# [35] = biological target: EPHB3 (human) (UniProt P54753)
# [36] = biological target: CDC42BPA (human) (UniProt Q5VT25)
# [37] = biological target: LRRK2 (human) (UniProt Q5S007)
# [38] = biological target: CSNK1A1 (human) (UniProt P48729)
# [39] = biological target: PDGFRA (human) (UniProt P16234)
# [40] = biological target: LTK (human) (UniProt P29376)
# LYN (human), sequence (P07948 whole entry, looked up): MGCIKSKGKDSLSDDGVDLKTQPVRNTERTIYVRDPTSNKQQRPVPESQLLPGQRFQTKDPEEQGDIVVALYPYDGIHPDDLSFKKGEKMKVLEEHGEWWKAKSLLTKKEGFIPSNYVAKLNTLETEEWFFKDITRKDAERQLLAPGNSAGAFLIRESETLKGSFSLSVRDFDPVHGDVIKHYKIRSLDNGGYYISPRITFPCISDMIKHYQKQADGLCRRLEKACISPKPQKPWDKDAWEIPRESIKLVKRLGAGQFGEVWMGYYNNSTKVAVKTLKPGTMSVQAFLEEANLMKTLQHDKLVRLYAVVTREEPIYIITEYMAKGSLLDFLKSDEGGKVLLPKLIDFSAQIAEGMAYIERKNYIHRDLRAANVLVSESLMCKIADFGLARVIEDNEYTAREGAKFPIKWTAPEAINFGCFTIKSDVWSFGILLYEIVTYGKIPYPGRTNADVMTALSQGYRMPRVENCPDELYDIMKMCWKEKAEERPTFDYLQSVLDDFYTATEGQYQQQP
# EPHA1 (human), sequence (P21709 whole entry, looked up): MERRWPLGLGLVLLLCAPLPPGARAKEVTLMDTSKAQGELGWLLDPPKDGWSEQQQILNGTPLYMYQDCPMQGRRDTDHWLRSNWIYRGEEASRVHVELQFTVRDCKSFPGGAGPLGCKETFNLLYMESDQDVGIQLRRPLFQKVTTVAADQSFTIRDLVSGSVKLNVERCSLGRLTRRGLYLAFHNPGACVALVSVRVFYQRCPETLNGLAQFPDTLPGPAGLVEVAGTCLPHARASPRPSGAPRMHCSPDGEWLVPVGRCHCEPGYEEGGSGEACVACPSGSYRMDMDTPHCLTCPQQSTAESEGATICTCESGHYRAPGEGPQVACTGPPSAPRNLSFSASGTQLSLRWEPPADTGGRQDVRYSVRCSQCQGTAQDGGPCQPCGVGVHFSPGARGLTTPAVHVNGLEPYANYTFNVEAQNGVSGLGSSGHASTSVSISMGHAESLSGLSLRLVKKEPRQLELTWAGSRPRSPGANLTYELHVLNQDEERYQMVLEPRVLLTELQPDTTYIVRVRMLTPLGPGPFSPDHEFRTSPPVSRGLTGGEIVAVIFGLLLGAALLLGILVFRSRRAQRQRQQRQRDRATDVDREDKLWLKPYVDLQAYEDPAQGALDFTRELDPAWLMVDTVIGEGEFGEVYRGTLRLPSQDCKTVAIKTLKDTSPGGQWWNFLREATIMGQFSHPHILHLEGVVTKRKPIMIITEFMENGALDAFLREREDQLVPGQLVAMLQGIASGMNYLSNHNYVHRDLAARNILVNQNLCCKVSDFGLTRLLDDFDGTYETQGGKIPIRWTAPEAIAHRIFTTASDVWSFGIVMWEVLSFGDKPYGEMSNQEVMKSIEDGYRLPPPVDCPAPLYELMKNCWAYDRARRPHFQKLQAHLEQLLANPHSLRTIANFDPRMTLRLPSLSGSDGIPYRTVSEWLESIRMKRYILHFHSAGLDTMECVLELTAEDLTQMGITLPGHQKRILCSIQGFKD
# MAPK14 (human), sequence (Q16539 whole entry, looked up): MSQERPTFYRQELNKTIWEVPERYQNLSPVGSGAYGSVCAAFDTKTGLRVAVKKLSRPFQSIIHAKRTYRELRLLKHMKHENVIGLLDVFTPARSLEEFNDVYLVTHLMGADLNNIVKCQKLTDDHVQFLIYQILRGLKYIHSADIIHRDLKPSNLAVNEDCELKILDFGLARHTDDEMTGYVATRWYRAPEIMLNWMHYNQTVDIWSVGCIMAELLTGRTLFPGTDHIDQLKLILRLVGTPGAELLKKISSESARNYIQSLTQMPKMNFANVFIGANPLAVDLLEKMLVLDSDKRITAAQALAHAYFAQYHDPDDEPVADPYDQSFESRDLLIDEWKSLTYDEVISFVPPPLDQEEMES
# BRSK2 (human), sequence (Q8IWQ3 whole entry, looked up): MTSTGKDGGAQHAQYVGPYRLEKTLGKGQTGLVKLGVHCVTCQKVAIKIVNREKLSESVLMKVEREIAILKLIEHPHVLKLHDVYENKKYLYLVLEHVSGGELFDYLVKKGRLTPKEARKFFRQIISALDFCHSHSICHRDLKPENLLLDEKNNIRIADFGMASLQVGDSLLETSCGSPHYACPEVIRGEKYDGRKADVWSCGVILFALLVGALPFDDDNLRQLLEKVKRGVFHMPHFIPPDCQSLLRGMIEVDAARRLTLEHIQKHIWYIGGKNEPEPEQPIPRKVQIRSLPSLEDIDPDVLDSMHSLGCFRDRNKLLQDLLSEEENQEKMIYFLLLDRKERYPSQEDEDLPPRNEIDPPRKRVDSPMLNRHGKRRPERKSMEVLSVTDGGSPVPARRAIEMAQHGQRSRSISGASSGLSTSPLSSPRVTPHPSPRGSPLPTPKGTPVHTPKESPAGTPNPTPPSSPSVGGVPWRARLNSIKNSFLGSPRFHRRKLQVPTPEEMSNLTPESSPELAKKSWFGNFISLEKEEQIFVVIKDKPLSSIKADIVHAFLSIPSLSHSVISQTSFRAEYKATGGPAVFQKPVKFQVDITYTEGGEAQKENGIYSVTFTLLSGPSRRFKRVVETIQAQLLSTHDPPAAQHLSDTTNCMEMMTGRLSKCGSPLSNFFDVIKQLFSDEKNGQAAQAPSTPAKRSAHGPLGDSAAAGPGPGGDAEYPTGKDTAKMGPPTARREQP
# PASK (human), sequence (Q96RG2 whole entry, looked up): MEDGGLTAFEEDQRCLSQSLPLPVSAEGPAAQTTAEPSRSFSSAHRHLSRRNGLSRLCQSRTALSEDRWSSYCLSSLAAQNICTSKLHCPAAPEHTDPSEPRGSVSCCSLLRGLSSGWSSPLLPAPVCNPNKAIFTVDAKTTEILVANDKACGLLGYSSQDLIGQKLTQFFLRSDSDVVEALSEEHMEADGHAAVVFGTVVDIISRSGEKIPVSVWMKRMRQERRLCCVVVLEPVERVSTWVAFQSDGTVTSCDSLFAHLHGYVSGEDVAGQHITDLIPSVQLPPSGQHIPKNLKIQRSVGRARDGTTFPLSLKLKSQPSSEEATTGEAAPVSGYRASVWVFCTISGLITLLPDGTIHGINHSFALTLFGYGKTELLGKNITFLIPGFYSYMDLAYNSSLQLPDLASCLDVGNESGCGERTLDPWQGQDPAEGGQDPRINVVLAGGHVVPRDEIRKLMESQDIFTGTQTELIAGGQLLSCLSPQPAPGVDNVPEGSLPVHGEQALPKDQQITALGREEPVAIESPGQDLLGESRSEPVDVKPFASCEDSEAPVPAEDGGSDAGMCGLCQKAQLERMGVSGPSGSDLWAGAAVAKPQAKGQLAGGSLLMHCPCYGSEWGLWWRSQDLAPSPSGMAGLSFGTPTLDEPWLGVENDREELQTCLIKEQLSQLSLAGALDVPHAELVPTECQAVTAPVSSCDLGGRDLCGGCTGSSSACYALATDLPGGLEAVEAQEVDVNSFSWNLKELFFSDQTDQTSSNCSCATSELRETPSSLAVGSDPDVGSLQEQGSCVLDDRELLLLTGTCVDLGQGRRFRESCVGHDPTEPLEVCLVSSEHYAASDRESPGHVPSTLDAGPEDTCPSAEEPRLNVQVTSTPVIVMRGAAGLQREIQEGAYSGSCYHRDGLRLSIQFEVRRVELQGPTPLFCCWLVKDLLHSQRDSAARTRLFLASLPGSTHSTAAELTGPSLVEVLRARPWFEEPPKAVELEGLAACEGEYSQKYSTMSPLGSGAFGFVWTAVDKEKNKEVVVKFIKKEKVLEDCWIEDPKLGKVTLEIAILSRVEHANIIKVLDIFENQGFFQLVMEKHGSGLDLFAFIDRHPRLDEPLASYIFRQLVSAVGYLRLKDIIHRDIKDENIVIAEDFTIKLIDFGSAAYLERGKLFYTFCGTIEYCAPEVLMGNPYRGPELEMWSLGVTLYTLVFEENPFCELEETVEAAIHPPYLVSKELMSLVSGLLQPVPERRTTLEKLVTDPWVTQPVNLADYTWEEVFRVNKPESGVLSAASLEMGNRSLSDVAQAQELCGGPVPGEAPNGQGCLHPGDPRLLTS
# STK3 (human), sequence (Q13188 whole entry, looked up): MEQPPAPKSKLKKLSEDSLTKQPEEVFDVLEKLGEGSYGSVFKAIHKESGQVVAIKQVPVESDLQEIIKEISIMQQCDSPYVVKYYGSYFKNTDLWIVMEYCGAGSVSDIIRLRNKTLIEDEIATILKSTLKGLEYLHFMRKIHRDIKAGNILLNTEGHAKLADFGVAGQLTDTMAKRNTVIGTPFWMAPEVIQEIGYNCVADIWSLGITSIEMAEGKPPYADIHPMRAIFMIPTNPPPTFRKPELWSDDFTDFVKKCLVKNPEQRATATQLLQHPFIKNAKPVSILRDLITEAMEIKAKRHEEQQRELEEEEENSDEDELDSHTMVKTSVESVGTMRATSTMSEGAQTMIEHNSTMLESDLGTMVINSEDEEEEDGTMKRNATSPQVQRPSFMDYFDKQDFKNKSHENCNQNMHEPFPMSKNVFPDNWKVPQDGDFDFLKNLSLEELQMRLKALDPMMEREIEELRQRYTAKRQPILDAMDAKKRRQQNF
# MAPKAPK5 (human), sequence (Q8IW41 whole entry, looked up): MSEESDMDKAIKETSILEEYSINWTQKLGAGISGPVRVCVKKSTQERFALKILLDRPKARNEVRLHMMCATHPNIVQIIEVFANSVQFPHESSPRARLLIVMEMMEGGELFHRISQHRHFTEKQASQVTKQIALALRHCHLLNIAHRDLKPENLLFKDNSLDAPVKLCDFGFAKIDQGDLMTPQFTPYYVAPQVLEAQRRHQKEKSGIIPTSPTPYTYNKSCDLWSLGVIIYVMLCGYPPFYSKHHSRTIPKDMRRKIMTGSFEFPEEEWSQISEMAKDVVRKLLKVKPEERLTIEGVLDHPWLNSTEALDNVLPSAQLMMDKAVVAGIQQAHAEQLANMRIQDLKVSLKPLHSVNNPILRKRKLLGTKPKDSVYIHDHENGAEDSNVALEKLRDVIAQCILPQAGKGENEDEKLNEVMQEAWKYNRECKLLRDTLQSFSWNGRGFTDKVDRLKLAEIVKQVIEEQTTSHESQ
SMILES,residual activity [1],residual activity [2],residual activity [3],residual activity [4],residual activity [5],residual activity [6],residual activity [7],residual activity [8],residual activity [9],residual activity [10],residual activity [11],residual activity [12],residual activity [13],residual activity [14],residual activity [15],residual activity [16],residual activity [17],residual activity [18],residual activity [19],residual activity [20],other results
COc1ccc(CNC(=O)Nc2ncc([N+](=O)[O-])s2)cc1,99.5%,94.3%,102%,93.1%,90.1%,101%,85.4%,104%,102%,91.4% and 97.7%,94.8%,101%,93.4%,108%,95.6%,98.8%,100%,90%,107%,88.4%,residual activity [21]: 92.6%; residual activity [22]: 104%; residual activity [23]: 106%; residual activity [24]: 100%; residual activity [25]: 40.2%; residual activity [26]: 73.5%; residual activity [27]: 106%; residual activity [28]: 92.2%; residual activity [29]: 99.1%; residual activity [30]: 100%; residual activity [31]: 98.9%; residual activity [32]: 102%; residual activity [33]: 94.3%; residual activity [34]: 97.9%; residual activity [35]: 101%; residual activity [36]: 93.7%; residual activity [37]: 87.7%; residual activity [38]: 92.4%; residual activity [39]: 93%; residual activity [40]: 101%
O=C1Cc2c([nH]c3ccc(Br)cc23)-c2ccccc2N1,99.6%,95.4%,73.4%,62.7%,94.6%,49.4%,103%,93%,99.9%,67.2% and 75.4%,81.7%,95.5%,95.5%,98.6%,98.8%,6.61%,101%,94.9%,100%,95.5%,residual activity [21]: 83.2%; residual activity [22]: 96.8%; residual activity [23]: 98%; residual activity [24]: 98.4%; residual activity [25]: 19.7%; residual activity [26]: 116%; residual activity [27]: 99%; residual activity [28]: 60.2%; residual activity [29]: 94.4%; residual activity [30]: 90.8%; residual activity [31]: 113%; residual activity [32]: 60.5%; residual activity [33]: 101%; residual activity [34]: 79.3%; residual activity [35]: 92.3%; residual activity [36]: 99%; residual activity [37]: 78.7%; residual activity [38]: 95.1%; residual activity [39]: 103%; residual activity [40]: 91.8%
